Laboratory results reported in ChEMBL document CHEMBL1201862, “PubChem BioAssay data set” (2004).
Activity calls are given as the source filed them.

Tests used:
[1] = biological target: T1, RNA-binding protein pos-1 (Caenorhabditis elegans, UniProt G5EF15); assay: inhibitors of POS-1/mex-3 RNA binding, dose response, biochemical, fluorescence polarization (AID 1964);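 note: purified POS-1 fused to maltose binding protein made in E. coli; potency of compounds blocking POS-1 binding to fluorescent RNA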
T1 sequence (G5EF15 whole entry): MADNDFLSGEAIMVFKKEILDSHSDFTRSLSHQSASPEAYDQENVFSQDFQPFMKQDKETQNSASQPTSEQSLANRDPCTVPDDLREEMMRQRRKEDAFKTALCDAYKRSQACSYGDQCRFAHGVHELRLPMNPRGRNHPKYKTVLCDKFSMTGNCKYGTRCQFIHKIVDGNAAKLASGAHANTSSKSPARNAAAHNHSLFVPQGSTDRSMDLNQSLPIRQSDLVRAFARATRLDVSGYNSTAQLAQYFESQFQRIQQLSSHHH

[2] = biological target: DNA dC->dU-editing enzyme APOBEC-3A (Homo sapiens, UniProt P31941); assay: Dose Response confirmation of small molecule APOBEC3A DNA Deaminase Inhibitors via a fluorescence-based single-stranded DNA deaminase assay. [Related pubchem assays (depositor defined):AID493011, AID493024]; type: functional
Chain of DNA dC->dU-editing enzyme APOBEC-3A (P31941 whole entry): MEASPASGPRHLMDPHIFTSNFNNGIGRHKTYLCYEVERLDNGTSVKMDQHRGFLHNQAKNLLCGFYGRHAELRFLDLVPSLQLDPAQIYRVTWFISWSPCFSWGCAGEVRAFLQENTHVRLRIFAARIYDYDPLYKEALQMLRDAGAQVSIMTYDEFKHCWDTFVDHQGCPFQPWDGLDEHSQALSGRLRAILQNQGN

[3] = biological target: T2, Zinc finger protein mex-5 (Caenorhabditis elegans, UniProt Q9XUB2); assay: MEX-5/TCR-2 RNA interaction inhibitors, dose response, biochemical, C. elegans, fluorescence polarization (AID 1960)
T2 sequence (Q9XUB2 whole entry): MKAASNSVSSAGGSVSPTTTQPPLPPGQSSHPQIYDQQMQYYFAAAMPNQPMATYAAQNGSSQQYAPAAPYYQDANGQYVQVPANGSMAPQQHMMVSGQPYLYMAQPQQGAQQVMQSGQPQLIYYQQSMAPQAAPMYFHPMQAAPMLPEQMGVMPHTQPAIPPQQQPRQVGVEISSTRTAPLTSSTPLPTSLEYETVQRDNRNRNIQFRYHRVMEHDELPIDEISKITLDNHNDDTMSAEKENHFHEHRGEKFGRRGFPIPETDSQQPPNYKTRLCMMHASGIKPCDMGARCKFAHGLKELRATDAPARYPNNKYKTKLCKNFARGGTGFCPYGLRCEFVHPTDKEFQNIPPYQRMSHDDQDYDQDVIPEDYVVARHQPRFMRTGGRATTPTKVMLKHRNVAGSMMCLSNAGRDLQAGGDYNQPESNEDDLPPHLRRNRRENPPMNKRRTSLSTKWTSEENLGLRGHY

[4] = biological target: DNA dC->dU-editing enzyme APOBEC-3G (Homo sapiens, UniProt Q9HC16); type: functional;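 note: Dose-response counterscreen measuring inhibition of APOBEC3G DNA deaminase activity, run while confirming APOBEC3A inhibitors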
Chain of DNA dC->dU-editing enzyme APOBEC-3G (Q9HC16 whole entry): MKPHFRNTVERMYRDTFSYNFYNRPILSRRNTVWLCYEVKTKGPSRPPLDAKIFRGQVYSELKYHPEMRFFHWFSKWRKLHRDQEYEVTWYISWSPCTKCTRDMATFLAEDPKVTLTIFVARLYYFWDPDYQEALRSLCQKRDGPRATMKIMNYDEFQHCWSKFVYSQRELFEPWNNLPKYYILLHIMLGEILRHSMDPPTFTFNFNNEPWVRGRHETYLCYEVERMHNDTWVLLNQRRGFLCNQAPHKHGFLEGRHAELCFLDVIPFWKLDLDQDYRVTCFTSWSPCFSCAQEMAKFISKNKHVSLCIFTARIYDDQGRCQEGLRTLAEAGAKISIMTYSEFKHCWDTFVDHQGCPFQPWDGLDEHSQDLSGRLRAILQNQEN

[5] = biological target: T3, Bifunctional protein GlmU (Mycobacterium tuberculosis, UniProt P9WMN3); assay: Inhibitors of Mycobacterial Glucosamine-1-phosphate acetyl transferase (GlmU). Secondary screen.; parameters: species or system Mycobacterium tuberculosis H37Rv
T3 sequence (P9WMN3 whole entry): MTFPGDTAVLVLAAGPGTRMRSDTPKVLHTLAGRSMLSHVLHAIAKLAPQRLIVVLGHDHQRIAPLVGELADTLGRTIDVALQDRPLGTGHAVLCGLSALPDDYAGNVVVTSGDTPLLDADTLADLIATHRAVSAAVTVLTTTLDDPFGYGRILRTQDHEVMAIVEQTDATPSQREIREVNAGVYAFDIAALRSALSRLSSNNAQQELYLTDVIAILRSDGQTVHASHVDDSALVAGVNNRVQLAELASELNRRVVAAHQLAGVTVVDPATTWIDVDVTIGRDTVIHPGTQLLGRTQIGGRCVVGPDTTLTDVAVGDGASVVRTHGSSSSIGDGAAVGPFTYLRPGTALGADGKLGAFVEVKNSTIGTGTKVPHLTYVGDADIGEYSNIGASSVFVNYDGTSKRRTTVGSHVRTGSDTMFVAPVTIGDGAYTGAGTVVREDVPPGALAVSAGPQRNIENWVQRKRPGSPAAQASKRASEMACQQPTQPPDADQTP

14-3-3 protein gamma = biological target: T4, 14-3-3 protein gamma (Homo sapiens, UniProt P61981); assay: modulators of 14-3-3 gamma client binding – dose response (AID 711); type: functional
T4 sequence (P61981 whole entry): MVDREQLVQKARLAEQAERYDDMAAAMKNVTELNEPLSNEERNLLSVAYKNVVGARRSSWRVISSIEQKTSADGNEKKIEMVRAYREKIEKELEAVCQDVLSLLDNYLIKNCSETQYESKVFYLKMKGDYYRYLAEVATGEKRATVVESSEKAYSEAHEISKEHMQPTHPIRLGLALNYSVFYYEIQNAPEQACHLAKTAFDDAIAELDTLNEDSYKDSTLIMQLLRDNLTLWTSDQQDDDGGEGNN

[6] = biological target: T5, 5-hydroxytryptamine receptor 1A (Homo sapiens, UniProt P08908); type: functional
T5 sequence (P08908 whole entry): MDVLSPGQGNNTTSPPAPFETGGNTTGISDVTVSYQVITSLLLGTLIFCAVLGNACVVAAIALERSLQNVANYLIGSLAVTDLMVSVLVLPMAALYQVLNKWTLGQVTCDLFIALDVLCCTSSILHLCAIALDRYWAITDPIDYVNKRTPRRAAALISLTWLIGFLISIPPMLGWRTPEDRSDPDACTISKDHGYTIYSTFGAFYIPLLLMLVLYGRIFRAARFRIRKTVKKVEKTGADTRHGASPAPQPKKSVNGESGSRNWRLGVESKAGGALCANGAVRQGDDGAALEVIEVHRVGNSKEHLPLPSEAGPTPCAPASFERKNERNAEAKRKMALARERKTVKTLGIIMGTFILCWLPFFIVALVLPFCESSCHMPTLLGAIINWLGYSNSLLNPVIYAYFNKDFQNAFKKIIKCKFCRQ

[7] = HEp-2 cell cytotoxicity, dose response, cytotoxicity control for RSV inhibitor project, HTS (AID 2410); type: functional; settings: human respiratory syncytial virus
[8] = biological target: T6, High affinity choline transporter 1 (Homo sapiens, UniProt Q9GZV3); assay: CHT inhibitors, dose response, cell-based, 5-point CRC, membrane potential dye (AID 504840); type: functional
T6 sequence (Q9GZV3 whole entry): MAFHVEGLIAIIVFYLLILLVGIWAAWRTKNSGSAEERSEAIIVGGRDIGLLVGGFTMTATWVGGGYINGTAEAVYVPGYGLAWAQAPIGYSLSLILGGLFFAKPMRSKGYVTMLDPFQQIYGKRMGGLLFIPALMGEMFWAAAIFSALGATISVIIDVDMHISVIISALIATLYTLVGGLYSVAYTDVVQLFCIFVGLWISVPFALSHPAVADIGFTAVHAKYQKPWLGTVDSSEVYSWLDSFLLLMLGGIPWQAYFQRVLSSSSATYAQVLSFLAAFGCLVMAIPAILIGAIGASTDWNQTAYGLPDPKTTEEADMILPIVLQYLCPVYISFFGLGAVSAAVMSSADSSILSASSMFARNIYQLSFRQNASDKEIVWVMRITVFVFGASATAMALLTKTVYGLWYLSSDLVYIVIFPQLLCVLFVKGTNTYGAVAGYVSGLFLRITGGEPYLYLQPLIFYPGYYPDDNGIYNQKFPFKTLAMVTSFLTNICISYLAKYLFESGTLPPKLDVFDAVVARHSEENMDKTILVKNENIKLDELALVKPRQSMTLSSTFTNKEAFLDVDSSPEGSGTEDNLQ

[9] = biological target: Voltage-gated inwardly rectifying potassium channel KCNH2 (Homo sapiens, UniProt Q12809); assay: hERG protection from proarrhythmic block, potency, dose response, cell-based, thallium flux (AID 2121); type: ADME
Chain of Voltage-gated inwardly rectifying potassium channel KCNH2 (Q12809 whole entry): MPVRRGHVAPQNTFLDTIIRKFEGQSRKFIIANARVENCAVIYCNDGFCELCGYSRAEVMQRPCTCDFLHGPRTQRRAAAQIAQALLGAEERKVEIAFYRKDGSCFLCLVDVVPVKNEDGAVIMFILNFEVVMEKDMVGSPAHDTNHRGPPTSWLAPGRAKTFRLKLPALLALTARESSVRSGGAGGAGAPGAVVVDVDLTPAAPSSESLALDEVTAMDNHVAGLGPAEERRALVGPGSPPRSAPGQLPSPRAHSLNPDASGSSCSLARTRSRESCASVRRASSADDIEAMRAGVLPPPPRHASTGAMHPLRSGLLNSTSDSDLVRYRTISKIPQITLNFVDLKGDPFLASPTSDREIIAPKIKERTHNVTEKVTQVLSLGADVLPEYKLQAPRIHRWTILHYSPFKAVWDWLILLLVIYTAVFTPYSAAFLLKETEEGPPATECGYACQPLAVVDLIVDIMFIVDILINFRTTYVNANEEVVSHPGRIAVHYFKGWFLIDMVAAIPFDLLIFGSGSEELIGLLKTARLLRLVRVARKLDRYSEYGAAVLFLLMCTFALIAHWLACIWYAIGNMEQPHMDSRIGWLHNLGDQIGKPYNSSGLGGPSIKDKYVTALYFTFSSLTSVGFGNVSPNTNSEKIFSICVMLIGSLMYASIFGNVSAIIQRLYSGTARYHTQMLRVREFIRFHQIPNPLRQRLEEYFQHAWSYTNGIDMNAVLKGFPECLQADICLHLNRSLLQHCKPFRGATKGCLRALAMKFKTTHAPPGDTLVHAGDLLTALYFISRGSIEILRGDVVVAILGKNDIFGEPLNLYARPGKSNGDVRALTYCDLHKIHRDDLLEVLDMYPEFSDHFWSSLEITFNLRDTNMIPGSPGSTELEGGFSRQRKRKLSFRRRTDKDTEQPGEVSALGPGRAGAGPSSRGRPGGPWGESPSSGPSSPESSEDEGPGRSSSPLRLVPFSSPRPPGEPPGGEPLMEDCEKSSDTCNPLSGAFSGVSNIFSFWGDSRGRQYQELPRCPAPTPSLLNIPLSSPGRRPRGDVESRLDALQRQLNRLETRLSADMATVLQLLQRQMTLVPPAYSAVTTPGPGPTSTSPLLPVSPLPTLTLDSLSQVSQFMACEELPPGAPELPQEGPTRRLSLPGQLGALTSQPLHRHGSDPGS

Ephrin type-A receptor 4 = Ephrin type-A receptor 4 (Mus musculus, UniProt Q03137); assay: inhibitors of EphA4 binding to KYL peptide, primary screen, biochemical, colorimetric, mouse EphA4 (AID 689); type: functional
Chain of Ephrin type-A receptor 4 (Q03137 whole entry): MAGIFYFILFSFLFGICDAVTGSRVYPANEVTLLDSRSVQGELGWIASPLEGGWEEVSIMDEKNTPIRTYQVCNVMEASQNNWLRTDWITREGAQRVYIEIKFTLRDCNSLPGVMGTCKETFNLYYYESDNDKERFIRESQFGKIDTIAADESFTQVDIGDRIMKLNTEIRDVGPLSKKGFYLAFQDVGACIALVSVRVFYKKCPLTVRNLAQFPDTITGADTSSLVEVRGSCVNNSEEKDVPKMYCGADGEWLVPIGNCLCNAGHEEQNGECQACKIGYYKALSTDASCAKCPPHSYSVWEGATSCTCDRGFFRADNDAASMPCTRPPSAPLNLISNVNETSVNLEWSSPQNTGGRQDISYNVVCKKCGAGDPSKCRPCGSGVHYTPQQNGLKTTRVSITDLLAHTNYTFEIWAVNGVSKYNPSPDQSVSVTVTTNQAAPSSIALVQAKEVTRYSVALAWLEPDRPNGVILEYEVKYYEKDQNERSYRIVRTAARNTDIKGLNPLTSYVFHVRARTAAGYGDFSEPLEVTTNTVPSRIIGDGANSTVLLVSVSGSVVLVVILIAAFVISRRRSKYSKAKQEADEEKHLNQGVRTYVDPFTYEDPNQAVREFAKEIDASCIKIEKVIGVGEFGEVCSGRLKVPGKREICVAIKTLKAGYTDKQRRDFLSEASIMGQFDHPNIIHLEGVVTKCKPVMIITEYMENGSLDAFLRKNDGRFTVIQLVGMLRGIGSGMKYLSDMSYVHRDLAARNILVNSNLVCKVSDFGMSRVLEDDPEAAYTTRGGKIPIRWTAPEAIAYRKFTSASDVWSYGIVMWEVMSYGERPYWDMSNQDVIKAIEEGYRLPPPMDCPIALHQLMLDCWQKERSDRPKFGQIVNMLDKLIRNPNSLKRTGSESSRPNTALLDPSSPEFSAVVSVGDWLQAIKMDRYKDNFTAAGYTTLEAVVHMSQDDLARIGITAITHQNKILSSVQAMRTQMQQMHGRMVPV

SMILES: CSc1nnc(SCc2nc3sc(C(=O)O)c(C)c3c(=O)[nH]2)s1
- EC50 [1]: 25.4 µM (active)
- IC50 [2]: 14 µM (active)
- EC50 [3]: 30.6 µM (active)
- IC50 [4]: 24.6 µM (active)
- IC50 [5]: 76.2 µM (active)

SMILES: COc1ccc(-n2ncc3c(N4CCCc5ccccc54)ncnc32)cc1
- IC50 (14-3-3 protein gamma): > 50 µM (not active)

SMILES: CCOc1ccc(N2C(=O)NC(=O)/C(=C\NCCN3CCNCC3)C2=O)cc1
- IC50 (14-3-3 protein gamma): > 50 µM (not active)

SMILES: Cc1cccc(N2CCN(C(=O)Cc3c(C(=O)O)[nH]c4ccc(Cl)cc34)CC2)c1C
- EC50 [6]: > 50 µM (not active)
- CC50 [7]: 20.4 µM (active)
- IC50 [8]: 10.8 µM (active)

SMILES: O=C1C2CC=CCC2C(=O)N1c1ccc(Cc2ccncc2)cc1 (centres undefined)
- EC50 [9]: 0.86 µM (active)

SMILES: Cc1nn(-c2ccccc2)c2c1C(c1cccnc1)N1C=C(S(=O)(=O)N3CCCCC3)C=CC1=N2 (centres undefined)
- IC50 (Ephrin type-A receptor 4): > 100 µM (not active)

SMILES: O=C(Nc1cccc(-c2cn3ccsc3n2)c1)c1ccccc1
- EC50 [6]: > 50 µM (not active)

SMILES: CCOC(=O)c1sc(NN=C(C(=O)OC)C(=O)OC)c(C(=O)OCC)c1C
- EC50 [9]: 0.21 µM (active)
